{"source": "patent US20260042831A1", "about": "“METHODS OF TREATING SARCOIDOSIS WITH A TNF-A ANTIBODY AND ASSOCIATED COMPOSITIONS AND METHODS” (XENTRIA, INC., priority 2022, published 2026)", "key": {"[1]": {"tested_on": "chronic refractory pulmonary sarcoidosis", "details": "low- and high-dose IV infusion, at 24 weeks; cited from earlier work"}, "[2]": {"tested_on": "normal human tissues and human sarcoidosis tissue", "assay": "Tissue cross-reactivity study (GLP, immunohistochemistry on cryosections)", "assay_type": "binding", "details": "for Tissues Showing Evidence of Staining: Sp2/0-Ag14 cells: negative control; for Tissues Showing Evidence of Staining: T3-33 (TNFα-expressing) cells: positive control, 5 and 20 μg/mL", "experimental": "Human tonsil, human lung and lymph node with sarcoidosis, and human small intestine with Crohn's disease were also included in the study.\nSamples from 1 to 3 separate donors from each of the listed tissues were evaluated. Fresh, unfixed tissue samples were placed into molds, filled with Tissue-Tek® OCT Compound, and frozen at −85 to −70° C. until sectioning. Sections were cut at approximately 5 μm and fixed in acetone for 10 minutes at room temperature. Human blood smears were stored at −85° to −70° C. until fixation and staining. XTMAB16 (primary antibody) was incubated overnight with biotinylated donkey anti-human IgG secondary labeled antibody. XTMAB16 and the control article, hIgG1, were tested at concentration of 5 and 20 μg/mL. Immunopathology was assessed by light microscopy.\nThe following human tissues were assessed in this cross-reactivity study: • 1. Positive Control: • Cryosections of T3-33 (TNFα-expressing) cells • 2. Negative Control: • Cryosections of Sp2/0-Ag14 cells • 3. Ancillary Controls: • Cryosections of human tonsil (mononuclear cells; 2 donors) • Cryosections of human small intestine with Crohn's disease (mononuclear cells; 1 donor) • Cryosections of human lung with sarcoidosis (mononuclear cells; 1 donor) • Cryosections of human lymph node with sarcoidosis (mononuclear cells; 1 donor)"}, "[3]": {"tested_on": "TNFα, IL-1β, IFNγ release", "assay": "In vitro granuloma model of sarcoidosis: supernatant cytokine release (ELISA)", "details": "30 minutes pre-treatment, 7 days following PPD", "description": "(§1) PMBCs were exposed to either uncoated bead (UNC) or Mycobacterium tuberculosis (M. tb) antigen PPD-coated beads for 7 days. […] Following imaging, supernatant samples were collected and quantified for extracellular cytokine release using an enzyme-linked immunosorbent assay."}, "[4]": {"tested_on": "PBMCs from subjects with active pulmonary sarcoidosis", "assay": "In vitro granuloma model of sarcoidosis: granuloma formation (MIPAR area fraction)", "description": "as §1"}, "[5]": {"tested_on": "transgenic TC (TgTC) mice (rheumatoid arthritis model)", "assay": "In vivo primary pharmacology: arthritis scores in TgTC mice", "set-up": "species or system mouse", "details": "for arthritis scores compared to vehicle control: Day 29 and Day 43 (p<0.01)"}, "[6]": {"details": "higher staining concentration (20 μg/mL), rare to occasional cells"}, "[7]": {"details": "lower staining concentration (5 μg/mL)"}}, "note": "“Also recorded” adds a separate entry of the source. Read-outs that look alike come from different tables or passages of the source."}
{"substance": "Infliximab: a monoclonal antibody (mAb) targeting TNFα that is being used off-label to treat sarcoidosis", "values": [{"measurement": "increase in predicted forced vital capacity", "setting": "[1]", "value": 2.5, "unit": "%"}]}
{"substance": "XTMAB-16: a chimeric (human/murine) IgG1 mAb directed against TNFα", "values": [{"measurement": "Tissues Showing Evidence of Staining: Smooth myocytes", "setting": "[2]; adrenal, bladder, cerebellum, cerebral cortex, cervix, kidney, large intestine, liver, lymph node, lung, striated muscle, nerve, ovary, pancreas, placenta, prostate, parathyroid, skin, small intestine, spleen, stomach, testis, thymus, tonsil, uterus", "value": "Cytoplasm of vascular and/or intrinsic smooth"}, {"measurement": "Tissues Showing Evidence of Staining: mononuclear cells in human tonsil, small intestine with Crohn's disease, lung with sarcoidosis, lymph node with sarcoidosis", "setting": "[2]; ancillary controls", "value": "Ancillary control tissues (+)"}, {"measurement": "majority of non-mononuclear cell binding", "setting": "[2]; binding observed at only the higher concentration in most tissues", "value": "low affinity"}, {"measurement": "Tissues Showing Evidence of Staining: Epithelial cells", "setting": "[2]; esophagus, Fallopian tube, kidney, lung (bronchioles), pancreas (acini), pituitary, salivary gland, skin (sweat glands), stomach (mucosa)", "value": "Cytoplasm only of epithelial cells stained"}, {"measurement": "mononuclear cell staining intensity in normal human tissues", "setting": "[2]; higher concentration", "value": "weak to strong or weak to moderate"}, {"measurement": "staining of membrane and cytoplasm of mononuclear cells in human tonsil", "setting": "[2]; [6]", "value": "weakly to strongly stained"}, {"measurement": "staining of mononuclear cells in small intestine with Crohn's disease, lung with sarcoidosis, lymph node with sarcoidosis", "setting": "[2]; [6]", "value": "weakly to strongly stained"}, {"measurement": "Tissues Showing Evidence of Staining: Glomerular tuft cells", "setting": "[2]; kidney", "value": "Cytoplasm of renal glomerular tuft cells"}, {"measurement": "mononuclear cell staining in normal human tissues", "setting": "[2]; lower concentration, versus higher concentration", "value": "comparable, reduced, or no staining"}, {"measurement": "staining of mononuclear cells in human tonsil", "setting": "[2]; [7]", "value": "weak to strong and rare staining"}, {"measurement": "staining of mononuclear cells in small intestine with Crohn's disease, lung with sarcoidosis, lymph node with sarcoidosis", "setting": "[2]; [7]", "value": "weak to moderate and rare staining"}, {"measurement": "Tissues Showing Evidence of Staining: Endothelial cells", "setting": "[2]; lymph node", "value": "Cytoplasm of endothelial cells in the lymph node."}, {"measurement": "Tissues Showing Evidence of Staining: Myoepithelial cells", "setting": "[2]; mammary gland", "value": "Membrane and cytoplasm of myoepithelial cells"}, {"measurement": "Tissues Showing Evidence of Staining: Sp2/0-Ag14 cells", "setting": "[2]", "value": "Negative control cryosections (−)"}, {"measurement": "Tissues Showing Evidence of Staining: Sp2/0-Ag14 cells", "setting": "[2]; listed as XTMAB16", "value": "did not react specifically"}, {"measurement": "Tissues Showing Evidence of Staining: Mononuclear cells", "setting": "[2]; normal human bladder, cervix, esophagus, large intestine, liver (Kupffer cells), lymph node, lung, pancreas, placenta (Hofbauer cells), parathyroid, salivary gland, skin, small intestine, spleen, stomach, thyroid, thymus, tonsil, uterus", "value": "stained the membrane and cytoplasm; also recorded: Membrane and cytoplasm of resident, migrating,"}, {"measurement": "Tissues Showing Evidence of Staining: T3-33 (TNFα-expressing) cells", "setting": "[2]", "value": "Positive control cells (+)"}, {"measurement": "Tissues Showing Evidence of Staining: T3-33 (TNFα-expressing) cells", "setting": "[2]; listed as XTMAB16", "value": "weak to strong membrane and cytoplasmic staining"}, {"measurement": "granuloma cytokine release", "setting": "[3]", "value": "significant dose-response effect"}, {"measurement": "IC50 for decrease in granuloma area fraction", "setting": "[4]", "value": 5.197, "unit": "µg/mL"}, {"measurement": "granuloma formation (area fraction)", "setting": "[4]; 30 minutes pre-treatment (XTMAB-16 1 to 40 μg/mL; prednisone 1 to 10 μM), 7 days following PPD", "value": "significantly attenuated; also recorded: significant dose-response effect"}, {"measurement": "IC50 for decrease in granuloma area fraction", "setting": "[4]; MIPAR area fraction, all subject samples, 7 days after PPD-coated beads", "value": 5.2, "unit": "µg/mL"}, {"measurement": "arthritis scores compared to vehicle control", "setting": "[5]; 20 mg/kg/dose on Days 1, 15, 29", "value": "statistically significant improvement"}, {"measurement": "arthritis scores compared to vehicle control", "setting": "[5]; 40 mg/kg/dose on Days 1, 15, 29", "value": "statistically significant improvement"}, {"measurement": "arthritis scores, 20 versus 40 mg/kg/dose", "setting": "[5]; t test: p>0.05", "value": "no significant differences"}]}
